# Experiments:
# [1] = test system: MAO-A; test: MAO-A inhibiting activity in vitro, rat liver mitochondrial membranes; assay type: biochemical; conditions: 10 uM; 300 nM deprenyl to block MAO-B; 60 minutes preincubation, 37° C., pH 7.2; [14C] Serotonin
# Experimental: The MAO-A activities in vitro were measured using Rat liver mitochondrial membranes as the source of the enzyme, according to a modified method of S. Otsuka & Y. Kobayashi: A Radioisotopic Assay for Monoamine Oxidase Determinations in Human Plasma. Biochem. Pharmacol. 13: 995-1006 (1964)
# Rat liver mitochondrial membranes are preincubated with drug or vehicle, and subtype selective blocker (300 nM deprenyl to block the B type of MAO) for 60 minutes at 37° C. in 100 mM KPO4 (pH 7.2). [^14 C] Serotonin ([…]) is then added and incubated for 10 minutes. The reaction is stopped by the addition of 0.5 ml of 2M citric acid. Radioactive product is extracted into a toluene/ethyl acetate fluor and compared to control values by scintillation spectrophotometry in order to ascertain any interactions of test compounds with MAO-A.
# [2] = Behavior Despair (Forced Swimming) test in rats (po); assay type: in vivo; conditions: 60 mg/kg (po), 4-minute test period, vs control vehicle
# Experimental: (§1) Behavior Despair (Forced Swimming) test, a well known pharmacological screening method for depression, was conducted similary to the test described by Porsolt, R. D., Bertin, A and Jalfre, M.: Behavior despair in mice: A preliminary screening test for antidepressants. Arch. Int. Pharmacodyn. Ther. 229: 327-336, 1977.
# Rats were pre-swam for 10 minutes the day before the test in 4000 mL glass cylinders containing water at 25° C. On the following day, rats were dosed orally (po) with either test compound or vehicle. One hour later each animal was placed in a glass cylinder and, following a 2-minute pretest, immobility was recorded for a 4-minute test period. For calculation of percent (%) reduction in immobility time, the difference in immobility time for control vehicle versus the drug is divided by the immobility time of the control vehicle and multiplied by 100.
# [3] = test system: 5-HT-mediated head-twitch response; test: Head-Twitch Test (5-HTP-induced head-twitch response in mice); assay type: in vivo; conditions: oral, vs control vehicle
# Experimental: The head-twitch response of mice is initiated by a variety of 5-HT mimetic drugs. The test was conducted in a manner similar to the procedure described by Heal, D. J., Philpot, J, O'Shaughnessy, K. M. and Davies, C. L.: The influence of central noradrenergic function on 5-HT-mediated head-twitch responses in mice: Possible implications for the actions of antidepressant drugs. Psychopharmacology 89: 414-420, 1986,
# The head-twitch consisted of a characteristic rotation of the head, neck and shoulders of the mice. The test drug or vehicle was given by oral gavage. Thirty minutes later all animals were pretreated with carbidopa (25 mg/kg ip). Fifteen minutes following carbidopa administration, the mice were injected with 100 mg/kg ip of L-5-hydroxytryptophan (5-HTP). The animals were then left for 30 minutes before measurement of the head-twitch response in the following 2-minute period. For calculation of percent (%) response increase, the difference in drug head twitch number versus the control vehicle head twitch number is divided by the control head twitch and multiplied by 100.
# [4] = Behavior Despair (Forced Swimming) test in mice (ip); assay type: in vivo; conditions: 30 mg/kg (ip), 15-minute test period, vs control vehicle
# Experimental: as §1
# Mice were dosed intraperitoneally (ip) with either test compound or vehicle. One hour later each animal was placed in a 1500 mL glass beaker containing water at room temperature. Mice were kept in the water for a period of 15 minutes and the duration of immobility observed within the 15-minute test period was recorded. A mouse was judged to be immobile if it floated motionlessly in the water making only those movements necessary to keep its head above the water. For calculation of percent (%) reduction in immobility time, the difference in immobility time for control vehicle versus the drug is divided by the immobility time of the control vehicle and multiplied by 100.
structure (smiles),measurement,setting,value
"NC(=O)OC[C@@H]1Cc2ccccc2CN1 [Example 3, (S)-3-Carbamoyloxymethyl-1,2,3,4-tetrahydroisoquinoline]",% Inhibition (MAO-A),[1],97.7%
same,% Reduction (immobility time),[2],83%
same,% Response Increase,[3]; 1 mg/kg,238%
"NC(=O)OC[C@H]1Cc2ccccc2CN1 [Example 4, (R)-3-Carbamoyloxymethyl-1,2,3,4-tetrahydroisoquinoline]",% Inhibition (MAO-A),[1],63.9%
same,% Response Increase,[3]; 15 mg/kg,258%
"NC(=O)OC[C@@H]1Cc2ccccc2CN1 [Example 5, (S)-3-Carbamoyloxymethyl-1,2,3,4-tetrahydroisoquinoline]",% Response Increase,[3]; 3 mg/kg,144%
"CN1Cc2ccccc2C[C@H]1COC(N)=O [Example 8, (S)-3-Carbamoyloxymethyl-N-methyl-1,2,3,4-tetrahydroisoquinoline]",% Response Increase,[3]; 1 mg/kg,77%
"NC(=S)OCC1Cc2ccccc2CN1 (centres unmarked) [Example 14, 3-Thiocarbamoyloxymethyl-1,2,3,4-tetrahydroisoquinoline]",% Response Increase,[3]; 8 mg/kg,42%
"CNC(=S)OC[C@@H]1Cc2ccccc2CN1 [Example 16, (S)-3-(N-Methylthiocarbamoyloxymethyl)-1,2,3,4-tetrahydroisoquinoline]",% Reduction (immobility time),[4],56%
"CNC(=S)OC[C@@H]1Cc2ccccc2CN1C(=O)Nc1ccccc1 [Example 17, (S)-3-(N-Methyl-thiocarbamoyloxymethyl)-N-(anilinocarbonyl)-1,2,3,4-tetrahydroisoquinoline]",% Reduction (immobility time),[4],46%
CNC(=S)OC[C@@H]1Cc2ccccc2CN1C [Example 18],% Reduction (immobility time),[4],33%
